Source: patent publication US20030104099A1, “Mineral delivery systems and methods” (priority 2001, published 2003)
Read-outs that look alike come from different tables or passages of the source.

Legend:
[1] = for solids in 25 grams of the filtered solution after drying: 2 grams acid + 2 grams calcium carbonate in 50 grams distilled water, four hours, 25 grams dried; for water solubility at ambient: distilled water
Procedure: To a 250 ml beaker, 2 grams of adipic acid powder is dissolved in 50 grams of distilled water. Then, 2 grams of calcium carbonate powder (Vicron 25-11 FG from Specilaty Minerals, Inc.) are added. […] After four hours, the slurry is filtered through a filter paper.
To a 250 ml beaker, 2 grams of tartaric acid powder is dissolved in 50 grams of distilled water. Then, 2 grams of calcium carbonate powder are added. […] After four hours, the slurry is filtered through a filter paper.
To a 250 ml beaker, 2 grams of malic acid powder is dissolved in 50 grams of distilled water. Then, 2 grams of calcium carbonate powder are added. […] After four hours, the slurry is filtered through a filter paper.
To a 250 ml beaker, 2 grams of citric acid powder is dissolved in 50 grams of distilled water. Then, 2 grams of calcium carbonate powder are added. […] After four hours, the slurry is filtered through a filter paper.
To a 250 ml beaker, 2 grams of fumaric acid powder is dissolved in 50 grams of distilled water. Then, 2 grams of calcium carbonate powder are added. […] After four hours, the slurry is filtered through a filter paper.

[2] = 120 grams distilled water, 3 grams acid, 39° C., 50 rpm, 30 minutes mixing, dried at 110° C.

Q: With O=C([O-])C(O)C(O)C(=O)[O-].[Ca+2] (stereo not drawn) [Calcium tartrate] as the compound, how does the “solids in 25 grams of the filtered solution after drying” value [1] read?
A: 0.15 grams

Q: What does the source list for O=C([O-])CC(O)C(=O)[O-].[Ca+2] (stereo not drawn) [Calcium malate]?
A: solids in 25 grams of the filtered solution after drying [1]: 0.5 grams; water solubility at ambient [1]: 2.0%

Q: For O=C([O-])/C=C/C(=O)[O-].[Ca+2] [Calcium fumarate], which “solids in 25 grams of the filtered solution after drying” value [1] is on record?
A: 0.6 grams

Q: What about the “water solubility at ambient” value [1] of the same compound?
A: 2.4%

Q: What about the “soluble calcium salt contained in the fluid” value ([2]; 75 grams ALPHA GRANDE bubble gum base) of the same compound?
A: 1.19%

Q: What about the “soluble calcium salt contained in the fluid” value ([2]; 75 grams DREYCO gum base) of the same compound?
A: 1.46%

Q: And the solubility in methanol (solids from ALPHA GRANDE bubble gum base fluid)?
A: not soluble

Q: What about the solubility in methanol (solids from DREYCO gum base fluid) of the same compound?
A: not soluble
